According to ChEMBL document CHEMBL1944601, “N-(4-Substituted-benzoyl)-N'-(β-d-glucopyranosyl)ureas as inhibitors of glycogen phosphorylase: Synthesis and evaluation by kinetic, crystallographic, and molecular modelling methods” (Bioorg Med Chem, 2012):

Key:
[1] = target: T1, Glycogen phosphorylase, muscle form (Oryctolagus cuniculus, UniProt P00489)
T1 sequence (P00489 whole entry): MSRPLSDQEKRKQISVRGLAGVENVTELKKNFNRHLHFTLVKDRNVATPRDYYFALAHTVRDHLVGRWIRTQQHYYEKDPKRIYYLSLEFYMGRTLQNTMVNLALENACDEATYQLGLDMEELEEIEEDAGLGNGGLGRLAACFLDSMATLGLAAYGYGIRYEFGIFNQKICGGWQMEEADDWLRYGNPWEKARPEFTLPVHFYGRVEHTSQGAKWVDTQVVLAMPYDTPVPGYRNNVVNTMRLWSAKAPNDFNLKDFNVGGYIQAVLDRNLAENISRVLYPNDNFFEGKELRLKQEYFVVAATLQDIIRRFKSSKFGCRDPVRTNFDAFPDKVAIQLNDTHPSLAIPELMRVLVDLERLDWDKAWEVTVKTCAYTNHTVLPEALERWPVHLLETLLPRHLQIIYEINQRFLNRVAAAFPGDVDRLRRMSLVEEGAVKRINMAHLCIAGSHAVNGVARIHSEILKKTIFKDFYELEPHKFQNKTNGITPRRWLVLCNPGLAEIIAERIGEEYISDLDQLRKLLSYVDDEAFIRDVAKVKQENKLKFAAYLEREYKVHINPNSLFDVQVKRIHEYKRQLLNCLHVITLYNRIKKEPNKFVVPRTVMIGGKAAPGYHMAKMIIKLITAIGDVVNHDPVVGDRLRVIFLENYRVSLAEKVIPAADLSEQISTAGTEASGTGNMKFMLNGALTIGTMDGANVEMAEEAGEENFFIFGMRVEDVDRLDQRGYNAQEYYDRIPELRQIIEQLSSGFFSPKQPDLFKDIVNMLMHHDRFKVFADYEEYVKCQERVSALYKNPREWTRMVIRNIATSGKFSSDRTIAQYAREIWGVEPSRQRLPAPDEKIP
Description: (§1) Inhibition of rabbit muscle glycogen phosphorylase b assessed as inorganic phosphate release at pH 6.8

[2] = target: T1, Glycogen phosphorylase, muscle form; remark: listed apart in the source
Description: as §1

Q: With `O=C(NC(=O)c1ccc(Cl)cc1)N[C@@H]1O[C@H](CO)[C@@H](O)[C@H](O)[C@H]1O` as the molecule, how does the Ki [1] read?
A: 4.4 µM

Q: How did the Ki [1] turn out when `O=C(NC(=O)c1ccc(-c2ccccc2)cc1)N[C@@H]1O[C@H](CO)[C@@H](O)[C@H](O)[C@H]1O` was run?
A: 3.7 µM

Q: How did the Ki [1] turn out when `O=C(NC(=O)c1ccc(C(=O)O)cc1)N[C@@H]1O[C@H](CO)[C@@H](O)[C@H](O)[C@H]1O` was run?
A: 85 µM

Q: Which Ki [1] does the source give for `CC(=O)NC(=O)N[C@@H]1O[C@H](CO)[C@@H](O)[C@H](O)[C@H]1O` here?
A: 370 µM

Q: How did the Ki [1] turn out when `NC(=O)NC1O[C@H](CO)[C@@H](O)[C@H](O)[C@H]1O` (single isomer, unassigned) was run?
A: 140 µM

Q: With `O=C(N[C@@H]1O[C@H](CO)[C@@H](O)[C@H](O)[C@H]1O)C(F)(F)F` as the molecule, how does the Ki [1] read?
A: 75 µM

Q: How did the Ki [2] turn out when `O=C(N[C@H]1O[C@H](CO)[C@@H](O)[C@H](O)[C@H]1O)C(F)(F)F` was run?
A: Not Active

Q: `O=C(O)CCC(=O)N[C@@H]1O[C@H](CO)[C@@H](O)[C@H](O)[C@H]1O` was tested. Which Ki [1] did it give?
A: 20 µM

Q: Which Ki [1] does the source give for `O=C(NC(=O)c1ccc(C(=O)OCc2ccccc2)cc1)N[C@@H]1O[C@H](CO)[C@@H](O)[C@H](O)[C@H]1O` here?
A: 150 µM

Q: How did the Ki [1] turn out when `COC(=O)N[C@@H]1O[C@H](CO)[C@@H](O)[C@H](O)[C@H]1O` was run?
A: 210 µM

Q: Which Ki [1] does the source give for `COC(=O)c1ccc(C(=O)NC(=O)N[C@@H]2O[C@H](CO)[C@@H](O)[C@H](O)[C@H]2O)cc1` here?
A: 4 µM

Q: With `[N-]=[N+]=NCC(=O)N[C@@H]1O[C@H](CO)[C@@H](O)[C@H](O)[C@H]1O` as the molecule, how does the Ki [1] read?
A: 49 µM

Q: How did the Ki [1] turn out when `COc1ccc(C(=O)NC(=O)N[C@@H]2O[C@H](CO)[C@@H](O)[C@H](O)[C@H]2O)cc1` was run?
A: 3.2 µM
